{"source": "PubChem BioAssay AID488792", "about": "(NMMLSC, 2010)", "note": "Activity calls are given as the source filed them.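 Rule for the calls: active = EC50 at or below 33 microM; inactive = the rest.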"}
{"tested_on": "S. cerevisiae AGP1-GFP strain, flow cytometry fluorescence, 3 h", "assay": "potency of screening hits on AGP1-GFP expression, SAR follow-up, cell-based, flow cytometry, S. cerevisiae (AID 488792)"}
{"smiles": "Nc1nc(Nc2ccccc2)nc(Nc2cccc(F)c2)c1[N+](=O)[O-]", "EC50": "140 µM (inactive)"}
{"smiles": "CN1CCN(C(=O)c2cc(COc3c(F)cccc3F)on2)CC1c1ccccc1", "note": "(stereo not given)", "EC50": "14.1 µM"}
{"smiles": "Nc1cc(Oc2cccc(Cl)c2)nc(NCc2ccccc2)n1", "EC50": "263 µM (inactive)"}
{"smiles": "O=[N+]([O-])c1cc(O)c2ncccc2c1", "EC50": "34.3 µM (inactive)"}
{"smiles": "O=[N+]([O-])c1ccc(O)c2ncccc12", "EC50": "5.98 µM"}
{"smiles": "O=C(c1ccc(C(=O)N2CCCc3ccccc32)s1)N1CCCc2ccccc21", "EC50": "0.46 µM"}
{"smiles": "CCC(C)Nc1nc(N)c([N+](=O)[O-])c(Nc2cccc(F)c2)n1", "note": "(stereo not given)", "EC50": "63.1 µM (inactive)"}
{"smiles": "CC(=O)SC(C[N+](=O)[O-])c1cn(C(C)=O)c2ccccc12", "note": "(stereo not given)", "EC50": "60.4 µM (inactive)"}
{"smiles": "Cc1ccc2nc(Cl)c3nnnn3c2c1", "EC50": "0.24 µM"}
{"smiles": "CC(C)(C)C(=O)C(Cl)C(=O)Nc1ccccc1", "note": "(stereo not given)", "EC50": "2.09 µM"}
{"smiles": "O=[N+]([O-])c1cc(Cl)c2cccnc2c1O", "EC50": "62 µM (inactive)"}
{"smiles": "CNc1nc(N)c([N+](=O)[O-])c(Nc2cccc(F)c2)n1", "EC50": "10.7 µM"}
{"smiles": "CC(=O)c1ccc(N2CCN(C(=O)c3ccc(Br)cc3)CC2)c(F)c1", "EC50": "4.22 µM"}
{"smiles": "COC(=O)CCS(=O)(=O)c1nc(-c2ccccc2)cc(C(F)(F)F)n1", "EC50": "0.3 µM"}
{"smiles": "O=C(Nc1nc(-c2ccccn2)cs1)C1COc2ccccc2O1", "note": "(stereo not given)", "EC50": "72.9 µM (inactive)"}
{"smiles": "Cc1cc(C(=O)Nc2nc(-c3ccccn3)cs2)ccc1[N+](=O)[O-]", "EC50": "57.5 µM (inactive)"}
{"smiles": "CC(C)(C)n1nc(-c2ccc(Cl)cc2)c2c(N)ncnc21", "EC50": "10.8 µM"}
{"smiles": "O=C(OCC(=O)N1CCN(C(=O)c2ccco2)CC1)c1cc(-c2ccc(F)cc2)nc2ccccc12", "EC50": "1.25 µM"}
{"smiles": "CC(C)(C)C(=O)NC(=S)NNC(=O)c1ccc(-c2ccccc2)cc1", "EC50": "34.5 µM (inactive)"}
{"smiles": "C/C(=N\\NC(=O)c1cccc(Br)c1)c1ccccn1", "EC50": "34.1 µM (inactive)"}
{"smiles": "CCOC(=O)CS(=O)(=O)c1nc(-c2ccccc2)cc(C(F)(F)F)n1", "EC50": "1.74 µM"}
{"smiles": "CC(Oc1ccc(Br)cc1)C(=O)Nc1nc(-c2ccccn2)cs1", "note": "(stereo not given)", "EC50": "102 µM (inactive)"}
{"smiles": "Cn1ncc(S(=O)(=O)Cc2ccccc2)c(Cl)c1=O", "EC50": "105 µM (inactive)"}
{"smiles": "CCN(CC)C(=O)Oc1ccnc2cc(Cl)ccc12", "EC50": "32.2 µM"}
{"smiles": "Cc1ccc(S(=O)(=O)c2ccc([N+](=O)[O-])cn2)cc1", "EC50": "4.42 µM"}
{"smiles": "O=C(Oc1c(Cl)cc(Cl)c2cccnc12)c1cccc([N+](=O)[O-])c1", "EC50": "34.8 µM (inactive)"}
{"smiles": "Cc1ccc(C(c2cc(Cl)c3cccnc3c2O)N2CCN(C)CC2)cc1", "note": "(stereo not given)", "EC50": "98.6 µM (inactive)"}
{"smiles": "CC(C)(C)n1nc(-c2ccc(F)cc2)c2c(N)ncnc21", "EC50": "174 µM (inactive)"}
{"smiles": "CCOC(=O)CCS(=O)(=O)c1nc(-c2ccccc2)cc(C(F)(F)F)n1", "EC50": "1.41 µM"}
{"smiles": "CC(=O)Nc1ncnc2c1c(-c1ccc(Cl)cc1)nn2C(C)(C)C", "EC50": "137 µM (inactive)"}
{"smiles": "COc1cccc(Nc2nc(N)c([N+](=O)[O-])c(Nc3cccc(F)c3)n2)c1", "EC50": "35 µM (inactive)"}
{"smiles": "O=C(OCn1ncc(Br)c(Br)c1=O)c1c(F)cccc1F", "EC50": "2.44 µM"}
{"smiles": "Nc1nc(Nc2cccc(Cl)c2)nc(Nc2cccc(F)c2)c1[N+](=O)[O-]", "EC50": "312 µM (inactive)"}
{"smiles": "O=C(OCC(=O)N1CCN(C(=O)c2ccco2)CC1)c1cc(-c2cccc(Br)c2)nc2ccccc12", "EC50": "36.5 µM (inactive)"}
{"smiles": "Cc1ccc(-c2nn(C(C)(C)C)c3ncnc(N)c23)cc1", "EC50": "300 µM (inactive)"}
